Where no end group is shown, it is not given here.
Biological target: T1, H-2K^b (Mus musculus, UniProt P01901)
T1 construct: endogenous in cells; host or cells: RMA-S cells (TAP-deficient)
T1 sequence (P01901 22-369): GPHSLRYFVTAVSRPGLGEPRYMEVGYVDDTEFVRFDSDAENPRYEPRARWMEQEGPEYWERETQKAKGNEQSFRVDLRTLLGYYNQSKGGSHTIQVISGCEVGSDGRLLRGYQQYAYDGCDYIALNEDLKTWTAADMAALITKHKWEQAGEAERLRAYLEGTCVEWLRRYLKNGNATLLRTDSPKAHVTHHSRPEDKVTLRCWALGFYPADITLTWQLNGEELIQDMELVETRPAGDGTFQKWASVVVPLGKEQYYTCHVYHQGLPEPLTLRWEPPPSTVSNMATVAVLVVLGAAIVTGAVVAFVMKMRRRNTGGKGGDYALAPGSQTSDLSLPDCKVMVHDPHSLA
T1 sequence (P01887 21-119 partner): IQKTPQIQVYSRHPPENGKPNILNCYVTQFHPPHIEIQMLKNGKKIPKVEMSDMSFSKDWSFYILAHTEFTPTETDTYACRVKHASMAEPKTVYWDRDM
Assay: cell-based
Settings: sarsWT concentration scan; 1 h 26 °C then 6 h 37 °C; APC anti-mouse H-2K^b antibody, flow cytometry; Figure S2, mean ± SD n = 3; read-out: EC50 of pMHC stabilization on RMA-S cells

ESIVRFPNI [sarsWT]
EC50: 1700 nM
